This is an account of results in patent publication US20080182125A1, “Cationic latex as a carrier for bioactive ingredients and its use in wallboard manufacture” (priority 2006, published 2008).

Where two headings read alike, the source gives them in different places.

Data set [1] concerns fungal species. As to the kind of experiment: 30-III fungal test on 1"X1" chip of dried latex, 7 days. The class given is cell-based. To be noted: 7 day incubation, FIG. 5. The source says: FIG. 5 is a graph showing the results of a 30-III fungal test, based on making a 1″X1″ chip of the dried latex, inoculating the fungal species directly on to the sample, and then observing its growth after 7 days.
The 30-III fungal test was based on making a 1″X1″ chip of the dried latex and inoculating the fungal species directly on to the sample and then observing its growth after 7 days.

Data set [2] is described as follows: Solubility of additives used in polymerization. In kind it is physicochemical.
Data set [3] can be described thus: Stability of additive under polymerization conditions. In kind it is physicochemical. The conditions noted are these: incorporated in relatively high amounts. An excerpt:
Ideally, the materials are substantially unreactive during the polymerization conditions, so they are not degraded during polymerization. In some embodiments, low levels of additive might be observed, whether due to degradation, or difficulty in extraction from the polymer latex. In any case, retention of the additive in the latex leads to retention of antifungal properties in the finished paper.
The polymerization temperature was investigated as a potential contributor to degradation, and it was kept as low as was feasible (typically <70° C.). The samples were stripped at the end of polymerization to the desired solids content.

The test system of data set [4] is fungal species. As to the kind of experiment: ASTM D-3273 second round test of coated paper, 28 days, spores in humidity chamber. In kind it is cell-based. To be noted: increased coating thickness, FIG. 6. The procedure: FIG. 6 is a graph showing the results of a second round of testing of coated paper samples, tested according to ASTM D-3273 over a period of 28 days. In this study, the fungal species were not directly inoculated on the surface, but rather, were maintained in the humidity chamber as spores that would then land on the surface of the coated paper.
A second round of testing was performed using an increased coating thickness to ensure full coverage of the paper surface. The second round of testing of the coated paper samples were tested according to ASTM D-3273. In this study, the duration remained the same (28 days), but the fungal species were not directly inoculated on the surface. Rather, they were maintained in the humidity chamber as spores that would then land on the surface of the coated paper as in a real world example. The results of this study are outlined in FIG. 6.

Setting [5] is: additives used in polymerization, solubility in monomer or water.

With `Cc1ccc(S(=O)(=O)C(I)I)cc1` [Amical AF, Diiodomethyltoluyl sulfone], the “Fungal inhibition, 30-III test” value with fungal species [1] is “some fungal inhibition”. Also, the Solubility entry in data set [2] (setting [5]) is listed as “Limited”. Further, the Degradation during polymerization result in data set [3] is “degraded”. Moreover, in the data set with fungal species [4], the “Antifungal effectiveness, ASTM D-3273” value is “effective”.
Regarding `[Na+].[O-]c1ccccc1-c1ccccc1` [Microban P2, Sodium orthophenyl phenate], the Solubility result in data set [2] (setting [5]) is listed as “Solid. Water”.
For `CCCC1COC(Cn2cncn2)(c2ccc(Cl)cc2Cl)O1` (stereo not shown) [Microban PZ, Propiconazole], the Solubility result in data set [2] is recorded as “Fairly soluble”.
With `CC(C)(C)C(O)(CCc1ccc(Cl)cc1)Cn1cncn1` (stereo not shown) [Microban TZ, Tebuconazole], in data set [2] (setting [5]), the Solubility entry is “Fairly soluble”.
In the case of `Oc1cc(Cl)ccc1Oc1ccc(Cl)cc1Cl` [Triclosan, Chlorodiphenyl ether], the Solubility entry in data set [2] (setting [5]) was “Solid. Fairly”.
As for Zinc pyrithione [Microban Z01], in the data set with fungal species [1], the “Fungal inhibition, 30-III test” value is recorded as “performed well”. Further, in the data set with fungal species [4], the “Antifungal effectiveness, ASTM D-3273” value is given as “did not perform well”.
